Legend:
GSK3 = settings: cited from earlier work
[1] = system: mTORC1 and mTORC2 pathways; test: Screening of GSK3 inhibitors: phospho-S6 / phospho-AKT staining (activation of mTORC1 and mTORC2 pathways); type: cell-based, human; settings: FIG. 12A, in words
Protocol: (§1) FIG. 12. Screening molecules for reprogramming human CD8^+ T cells Total CD8^+ T cells were purified and treated for 12 hs with titrated doses of GSK3 inhibitors or DMSO vehicle control. After drug washout, cells were stimulated for 48 hs with plate-bound anti-CD3/anti-CD28 antibodies (at 1 mg/mL), followed by flow cytometry analyses. A. Upon stimulation, intracellular cytokine and phospho-protein staining was performed, the latter for the detection of phospho-S6 and phospho-AKT proteins (indicative of activation of mTORC1 and mTORC2 pathways, respectively). The fold change in the frequency of IFN-γ^+TNF-α^+ and pS6^+pAKT^+ cells induced by the treatment with each GSK3 inhibitor, relative to DMSO control, was analyzed. […] B. Fold change in the expression of the indicated markers and memory phenotypes induced by anti-CD3/anti-CD28 antibody stimulation relative to unstimulated cells (at least 3 donors per condition). TCM: T central memory; TEM: T effector memory; TTM: T transitional memory; TTE: T terminal effector; TSCM: T stem cell memory.
(§2) For reprogramming of CD8^+ T cells followed by polyclonal stimulation, cells were isolated by negative magnetic bead sorting (Stemcell Technologies). For reprogramming of CD8^+ T cells followed by antigen-specific stimulation, PBMC and magnetically separated CD8^+ T cells and non-CD8^+ T cells were used (REAlease® CD8 MicroBead Kit; Miltenyi Biotech). Then, CD8^+ T cells were treated with a GSK3 inhibitor (6-Bromoindirubin-3′-oxime; BIO; Sigma-Aldrich), at 3 μM, or an equivalent concentration of dimethyl sulfoxide (DMSO) vehicle control, in complete medium, for 12 hs at 37° C., 5% CO2. Non-CD8 cells were left resting during this time in complete medium. CD8^+ T cells were washed with complete medium and stimulated with the peptide pool in presence of non-CD8 T cells.
(§3) In some experiments, cells were culture in RPMI medium without glucose (MP Biomedicals). CD8^+ T cell proliferation was evaluated by CFSE dilution (at 1 μM, Thermo Fisher Scientific). In additional experiments, reprogrammed CD8^+ T cells were stimulated with IL-7 or IL-15 (both at 10 ng/mL; R&D) and cultured for 6 days. In all the cases, cells were cultured at a density of 2×10^6 cells/mL.
(§4) After cultures, cells were stained with the LIVE/DEAD Fixable Aqua Dead Cell Stain kit (Thermo Fisher Scientific), with anti-CD3 Alexa Fluor 700 or APC efluor 780 and anti-CD8 PE Texas Red antibodies, accordingly. […] In some experiments, cells were stained with APC-conjugated dextramers (Immudex), incubated for 15 minutes at room temperature. Additional surface staining panels included anti-HLA-DR Superbright 780, anti-CD38 Superbright 600, anti-PD-1 BV421, anti-LAG-3 APC efluor 780, anti-TIM3 PE Cy7, and anti-TIGIT BV786 antibodies, or anti-CD122 PE and anti-CD215 FITC antibodies. The BD Transcription Factor Buffer Set kit (BD Biosciences) was used for cell fixation and permeabilization. […] Cell acquisition was performed using LSR II or ARIA III flow cytometers (both from BD Biosciences), and data were analyzed with FlowJo v.10 software (BD Biosciences).
(§5) The inventors explored GSK3 inhibitors to expand the array of molecules that could be used for CD8^+ T cell reprogramming. They implemented a screening approach that combined the evaluation of cytokine polyfunctionality of CD8^+ T cells (IFN-γ+TNFα+) vs the activation of mTORC1 and mTORC2 pathways (pS6+pAKT+) upon treatment with the GSK3 inhibitors and subsequent polyclonal stimulation.

human CD8+ T cells [2] = test: Screening of GSK3 inhibitors: markers and memory phenotypes by flow cytometry; type: cell-based; settings: FIG. 12B, in words
Protocol: as §1, §2, §3, §4

human CD8+ T cells [3] = test: Screening of GSK3 inhibitors: cytokine polyfunctionality (IFN-γ+TNF-α+) of CD8+ T cells after anti-CD3/anti-CD28 stimulation; type: cell-based; settings: FIG. 12A, in words
Protocol: as §1, §2, §3, §4, §5

For `O=C1Nc2cc(Br)ccc2/C1=C1/Nc2ccccc2/C1=N\O` [BIO, 6-bromoindirubin-3′-oxime], the beta-catenin phosphorylation (GSK3; Meijer L et al., 2003) is listed as “reduces”, the “phosphorylation on Tyr276/216 GSK3a/p activation site” value (GSK3; Meijer L et al., 2003) is listed as “inhibits” and the Wnt/β-catenin/TCF-1 pathway (GSK3; reference 42) is listed as “induce the activation”. For the same compound, the “frequency of pS6+pAKT+ cells / activation of mTORC pathway” value [1] was “lower frequency”, the “CD127+ T-bet− phenotype” value (human CD8+ T cells [2]) was “preserved” and the “acquisition of T-bet, HLA-DR and CD38, PD-1 and LAG-3” value (human CD8+ T cells [2]) was “restrained”. For the same compound, the “phenotype / profile promoted in CD8+ T cells” value (human CD8+ T cells [2]) was “promoted a less-differentiated phenotype” and the “IFN-γ+TNF-α+ cells (polyfunctionality) relative to vehicle control” value (human CD8+ T cells [3]) was “promoted”.

Reference: US20250108070A1, “METHOD FOR REPROGRAMMING CD8+ T CELLS TO ENHANCE THEIR THERAPEUTIC POTENTIAL AND APPLICATIONS THEREOF” (INSTITUT PASTEUR, priority 2022, published 2025)
